From US20230146455A1, “TREATMENT OF INFLAMMATORY DISEASES WITH PEPTIDES AND PHARMACEUTICAL COMPOSITIONS” (Yuyu Pharma, Inc., priority 2020, published 2023)
Values joined by “and” are separate entries in the source; they are usually repeats but may differ in a detail not shown here. Equal entries are not always repeated. Where a SMILES comes first, the peptide text is derived from it. [ ]: non-standard residue; d: D form. Hyp = O=C(O)[C@@H]1C[C@@H](O)CN1

Tested on: human PBMCs
Experiment: PBMC cell counts (total, live, viability; trypan blue, Countess) with and without LPS and test articles (Example 9)
Assay type: cell-based
Experimental: Treatment Human PBMCs were pretreated with YY-101, YDE-011 and YDE-043 or reference compound; Xiidra® at various concentration (ranging from 1 nM to 100 uM) for 2 h before stimulation. An equal volume of 0.5% DMSO was used as a vehicle control. Then, the cells were treated with LPS at 5 ug/ml. The supernatants from treated cells were harvested at 24 h and placed in a 96 well for Luminex cytokine & chemokine profiling using a Luminex 200 multiplex assay (Luminex; R&D system, USA).
The main study arm with triplicate wells per group in a 24-well plate: • 1. Blank • 2. PBMC: 0.5% DMSO • 3. PBMC+LPS (5 ug/ml) • 4. PBMC+YY-101 100 uM • 5. PBMC+YY-101 10 uM • 6. PBMC+YY-101 1 uM • 7. PBMC+YY-101 0.1 uM • 8. PBMC+YY-101 0.01 uM • 9. PBMC+LPS (5 ug/ml)+Xiidra®100 uM • 10. PBMC+LPS (5 ug/ml)+Xiidra® 10 uM • 11. PBMC+LPS (5 ug/ml)+Xiidra® 1 uM • 12. PBMC+LPS (5 ug/ml)+Xiidra®0.1 uM • 13. PBMC+LPS (5 ug/ml)+Xiidra®0.01 uM • 14. PBMC+LPS (5 ug/ml)+Xiidra®0.001 uM • 15. PBMC+LPS (5 ug/ml)+YY-101 100 uM • 16. PBMC+LPS (5 ug/ml)+YY-101 10 uM • 17. PBMC+LPS (5 ug/ml)+YY-101 1 uM • 18. PBMC+LPS (5 ug/ml)+YY-101 0.1 uM • 19. PBMC+LPS (5 ug/ml)+YY-101 0.01 uM • 20. PBMC+LPS (5 ug/ml)+YY-101 0.001 uM • 21. PBMC+LPS (5 ug/ml)+YDE-011 100 uM • 22. PBMC+LPS (5 ug/ml)+YDE-011 10 uM • 23. PBMC+LPS (5 ug/ml)+YDE-011 1 uM • 24. PBMC+LPS (5 ug/ml)+YDE-011 0.1 uM • 25. PBMC+LPS (5 ug/ml)+YDE-011 0.01 uM • 26. PBMC+LPS (5 ug/ml)+YDE-011 0.001 uM • 27. PBMC+LPS (5 ug/ml)+YDE-043 100 uM • 28. PBMC+LPS (5 ug/ml)+YDE-043 10 uM • 29. PBMC+LPS (5 ug/ml)+YDE-043 1 uM • 30. PBMC+LPS (5 ug/ml)+YDE-043 0.1 uM • 31. PBMC+LPS (5 ug/ml)+YDE-043 0.01 uM • 32. PBMC+LPS (5 ug/ml)+YDE-043 0.001 uM
The number of PBMCs was measured after 24 hr of treatment. The culture both and trypan blue were diluted 1:1 and 10 ul was added to Countess cell counting chamber (Thermo fisher, USA). The number of PBMCs was measured using a Countess automated cell counter (Thermo fisher, USA).

[1] = PBMC + LPS(5 ug/ml) + test article 100 uM, Mean
[2] = PBMC + LPS(5 ug/ml) + test article 100 uM, single replicates
[3] = PBMC + LPS(5 ug/ml), test article 0.001 uM, Mean
[4] = PBMC + LPS(5 ug/ml), test article 0.001 uM, single replicates
[5] = PBMC + LPS(5 ug/ml), test article 0.01 uM, Mean
[6] = PBMC + LPS(5 ug/ml), test article 0.01 uM, single replicates
[7] = PBMC + LPS(5 ug/ml), test article 0.1 uM, Mean
[8] = PBMC + LPS(5 ug/ml), test article 0.1 uM, single replicates
[9] = PBMC + LPS(5 ug/ml), test article 1 uM, Mean
[10] = PBMC + LPS(5 ug/ml), test article 1 uM, single replicates
[11] = PBMC + LPS(5 ug/ml), test article 10 uM, Mean
[12] = PBMC + LPS(5 ug/ml), test article 10 uM, single replicates
[13] = PBMC + LPS(5 ug/ml), test article 100 uM, Mean
[14] = PBMC + LPS(5 ug/ml), test article 100 uM, single replicates

`CC(C)C[C@H](NC(=O)[C@H](CCC(N)=O)NC(=O)CNC(=O)[C@@H]1C[C@@H](O)CN1)C(=O)NCC(=O)O` [YDE-043] (H-[Hyp]GQLG-OH; N-terminus and C-terminus assumed) was tested, and the Live cell (PBMC + LPS(5 ug/ml) + test article 10 uM, single replicates (1st, 2nd, 3rd)) was 5.2 10^5/ml and 5.4 10^5/ml and 5.6 10^5/ml, the Live cell [1] was 6.3 10^5/ml and the “Live cell (10^5/ml)” value [1] was 6.3 10^5/ml. For the same compound, the “Live cell, Mean” value [1] was 6.3 10^5/ml, the Live cell (PBMC + LPS(5 ug/ml) + test article 100 uM, individual replicates) was 6.2 10^5/ml and 6.4 10^5/ml and the Live cell (PBMC + LPS(5 ug/ml) + test article 100 uM, individual replicates (1st, 2nd, 3rd)) was 6.2 10^5/ml and 6.4 10^5/ml. The Live cell [2] was 6.2 10^5/ml and 6.4 10^5/ml, the “Live cell (10^5/ml)” value [2] was 6.2 10^5/ml and 6.4 10^5/ml and the Live cell (PBMC + LPS(5 ug/ml) + test article 100 uM, single replicates (1st, 2nd, 3rd)) was 6.2 10^5/ml and 6.4 10^5/ml. The Live cell (PBMC + LPS(5 ug/ml), 0.001 uM, Mean) was 5.0 10^5/ml, the Live cell (PBMC + LPS(5 ug/ml), 0.001 uM, single replicates) was 4.4 10^5/ml and 6.0 10^5/ml and 4.6 10^5/ml and the Live cell (PBMC + LPS(5 ug/ml), 0.01 uM, Mean) was 5.4 10^5/ml. For the same compound, the Live cell (PBMC + LPS(5 ug/ml), 0.01 uM, single replicates) was 4.5 10^5/ml and 6.6 10^5/ml and 5.0 10^5/ml, the Live cell (PBMC + LPS(5 ug/ml), 0.1 uM, Mean) was 5.4 10^5/ml and the Live cell (PBMC + LPS(5 ug/ml), 0.1 uM, single replicates) was 5.0 10^5/ml and 5.6 10^5/ml (2×). For the same compound, the Live cell (PBMC + LPS(5 ug/ml), 1 uM, Mean) was 5.3 10^5/ml, the Live cell (PBMC + LPS(5 ug/ml), 1 uM, single replicates) was 5.8 10^5/ml and 4.8 10^5/ml and 5.3 10^5/ml and the Live cell (PBMC + LPS(5 ug/ml), 10 uM, Mean) was 5.4 10^5/ml. The Live cell (PBMC + LPS(5 ug/ml), 10 uM, single replicates) was 5.2 10^5/ml and 5.4 10^5/ml and 5.6 10^5/ml, the Live cell (PBMC + LPS(5 ug/ml), 100 uM, Mean) was 6.3 10^5/ml and the Live cell (PBMC + LPS(5 ug/ml), 100 uM, single replicates) was 6.2 10^5/ml and 6.4 10^5/ml. For the same compound, the Live cell [3] was 5.0 10^5/ml, the Total cell count [3] was 6.3 10^5/ml and the Live cell [4] was 4.4 10^5/ml and 6.0 10^5/ml and 4.6 10^5/ml. For the same compound, the Total cell count [4] was 5.6 10^5/ml (2×) and 7.8 10^5/ml, the Viability [4] was 79.0% and 77.0% and 82.0% and the Live cell [5] was 5.4 10^5/ml. The Total cell count [5] was 6.9 10^5/ml, the Live cell [6] was 4.5 10^5/ml and 6.6 10^5/ml and 5.0 10^5/ml and the Total cell count [6] was 6.2 10^5/ml and 7.3 10^5/ml and 7.2 10^5/ml. The Live cell [7] was 5.4 10^5/ml, the Total cell count [7] was 6.6 10^5/ml and the Live cell [8] was 5.0 10^5/ml and 5.6 10^5/ml. The Total cell count [8] was 6.8 10^5/ml and 6.4 10^5/ml and 6.5 10^5/ml, the Viability [8] was 74.0% and 87.0% and 85.0% and the Live cell [9] was 5.3 10^5/ml. For the same compound, the Total cell count [9] was 6.8 10^5/ml, the Live cell [10] was 5.8 10^5/ml and 4.8 10^5/ml and 5.3 10^5/ml and the Total cell count [10] was 6.9 10^5/ml and 5.7 10^5/ml and 7.8 10^5/ml. The Viability [10] was 83.0% (2×) and 68.0%, the Live cell [11] was 5.4 10^5/ml and the Total cell count [11] was 6.4 10^5/ml. The Live cell [12] was 5.2 10^5/ml and 5.4 10^5/ml and 5.6 10^5/ml, the Total cell count [12] was 6.4 10^5/ml and 6.7 10^5/ml and 6.2 10^5/ml and the Viability [12] was 80.0% (2×) and 90.0%. For the same compound, the Live cell [13] was 6.3 10^5/ml, the Total cell count [13] was 7.6 10^5/ml and the Live cell [14] was 6.2 10^5/ml and 6.4 10^5/ml. For the same compound, the Total cell count [14] was 7.0 10^5/ml and 8.1 10^5/ml, the Viability [14] was 89.0% and 80.0% and the “which treatments consistently affected the total and live number of PBMCs or the percent viability (in words)” value (up to 100 μM, 24-hour treatment) was “none of”.
